Test results taken from patent US20080261994A1, “CYCLOPROPANE COMPOUNDS AND PHARMACEUTICAL USE THEREOF” (Japan Tobacco Inc., priority 2003, published 2008).
Like-named read-outs stand apart in the source and are kept apart here.

Assays:
Type in all cases: biochemical
[1] = molecular target: T1, aggrecanase-1 (Homo sapiens, UniProt O75173); test: Aggrecanase-1 inhibitory action (Particle Assay, GAG release from aggrecan-containing polyacrylamide particles)
T1 sequence (O75173 213-837): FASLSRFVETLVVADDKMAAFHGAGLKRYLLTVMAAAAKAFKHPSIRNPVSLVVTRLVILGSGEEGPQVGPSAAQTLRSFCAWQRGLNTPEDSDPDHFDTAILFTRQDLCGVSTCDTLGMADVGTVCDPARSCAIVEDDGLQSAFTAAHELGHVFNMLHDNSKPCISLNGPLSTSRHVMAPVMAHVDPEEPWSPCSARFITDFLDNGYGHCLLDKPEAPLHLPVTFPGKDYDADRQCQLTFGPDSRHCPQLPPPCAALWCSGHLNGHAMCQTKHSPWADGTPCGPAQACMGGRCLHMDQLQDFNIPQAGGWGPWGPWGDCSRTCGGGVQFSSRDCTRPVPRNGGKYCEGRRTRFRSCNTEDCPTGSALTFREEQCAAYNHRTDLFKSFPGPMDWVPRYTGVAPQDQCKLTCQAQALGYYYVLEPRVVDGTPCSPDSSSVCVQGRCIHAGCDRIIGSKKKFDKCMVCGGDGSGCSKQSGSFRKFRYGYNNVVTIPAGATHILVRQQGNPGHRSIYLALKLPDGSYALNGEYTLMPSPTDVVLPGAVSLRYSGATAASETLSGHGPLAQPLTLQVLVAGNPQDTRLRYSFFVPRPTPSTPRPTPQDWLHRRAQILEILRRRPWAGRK
Procedure, shortened: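 Readout was dimethylmethylene blue absorbance (595 nm) of glycosaminoglycan liberated into supernatant, calibrated with whale chondroitin sulfate. Substrate was aggrecan in polyacrylamide particles, digested 15 h at 37° C in Tris-HCl; TC50 (μM) derived from inhibition relative to no-enzyme and no-inhibitor controls.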

[2] = molecular target: T2, Recombinant Human MMP-13 (Homo sapiens, UniProt P45452); test: MMP-13 inhibitory activity (MMP-13 specific fluorescent substrate with quencher)
T2 construct: purchased R&D systems 511-MM
Procedure, shortened: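 IC50 (μM) derived from % inhibition, normalised to wells without enzyme and without inhibitor, fluorescence read at 325/405 nm. Enzyme and compound preceded addition of the quenched 7-MCA…DPA substrate; Tris-HCl buffer, 25 °C for 1 h, acetic-acid stop.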

[3] = molecular target: T3, MMP-1 (Homo sapiens, UniProt P03956); test: MMP-1 inhibitory action (Type I collagen Activity Measurement kit, FITC-labeled collagen type I)
T3 sequence (P03956 100-469): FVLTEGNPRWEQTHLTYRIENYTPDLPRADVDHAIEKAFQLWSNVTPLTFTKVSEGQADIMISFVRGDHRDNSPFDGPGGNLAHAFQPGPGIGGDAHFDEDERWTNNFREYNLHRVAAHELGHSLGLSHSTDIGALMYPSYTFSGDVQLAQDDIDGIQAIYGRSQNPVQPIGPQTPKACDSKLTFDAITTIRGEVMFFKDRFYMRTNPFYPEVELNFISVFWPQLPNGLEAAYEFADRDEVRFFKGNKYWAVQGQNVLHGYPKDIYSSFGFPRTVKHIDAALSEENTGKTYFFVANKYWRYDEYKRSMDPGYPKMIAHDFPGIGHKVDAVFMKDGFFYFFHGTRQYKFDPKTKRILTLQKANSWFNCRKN

[4] = Experimental Example 1, read-out: IC50 AG1
[5] = Experimental Example 3, read-out: IC50 MMP13
[6] = Experimental Example 2, read-out: IC50 MMP1
[7] = aggrecanase-1 inhibitory action, read-out: IC50 AG1 (Experimental Example 1)
[8] = Recombinant Human MMP-13, fluorescent substrate, 25° C. for 1 h, read-out: IC50 MMP13 (Experimental Example 3)
[9] = MMP-1 inhibitory action, FITC-labeled collagen type I, 37° C. for 3 hr, read-out: IC50 MMP1 (Experimental Example 2)

| Compound | IC50 [1, 4] [nM] | IC50 [2, 5] [nM] | IC50 [3, 6] [µM] | IC50 [1, 7] [nM] | IC50 [2, 8] [nM] | IC50 [3, 9] [µM] |
| --- | --- | --- | --- | --- | --- | --- |
| C[C@]1(c2ccccc2)C[C@@]1(NS(=O)(=O)c1ccc(-c2ccc3nnn(O)c3c2)s1)C(=O)O [Example 2-487] | ≥ 1000 | ≥ 1000 | ≥ 10 | – | – | – |
| Cc1cnc(N2CCN(S(=O)(=O)N[C@@]3(C(=O)O)C(C)[C@@H]3c3ccccc3)CC2)s1 (stereo partly drawn) [Example 2-484] | ≥ 1000 | < 1000 | ≥ 10 | – | – | – |
| CN(Cc1cccnc1)c1cccc(C2CC2(NS(=O)(=O)c2ccc(-c3ccc(Cl)cc3)s2)C(=O)O)c1 (stereo not drawn) [Example 2-37] | – | – | – | < 100 | < 100 | ≥ 10 |
| CC1[C@H](c2ccccc2)[C@]1(NS(=O)(=O)N1CCN(c2nc3ccccc3o2)CC1)C(=O)O (stereo partly drawn) [Example 2-464] | ≥ 1000 | ≥ 1000 | ≥ 10 | – | – | – |
| O=C(O)CSCC1(c2ccccc2)CC1(NS(=O)(=O)c1ccc(-c2ccc(Cl)cc2)s1)C(=O)O (stereo not drawn) [Example 2-358] | < 100 | < 1000 | ≥ 1 | – | – | – |
| NCCc1ccc([C@H]2C[C@@]2(NS(=O)(=O)c2ccc(-c3cc(C(F)(F)F)on3)s2)C(N)=O)cc1 [Example 2-300] | < 1000 | < 100 | ≥ 1 | – | – | – |
| C[C@]1(c2ccccc2)C[C@@]1(NS(=O)(=O)c1ccc(-c2ccc(Cl)c([N+](=O)[O-])c2)s1)C(=O)O [Example 2-477] | ≥ 1000 | ≥ 1000 | ≥ 10 | – | – | – |
| O=C(CN1CCOCC1)Nc1cccc(C2CC2(NS(=O)(=O)c2ccc(-c3cc(C(F)(F)F)on3)s2)C(=O)O)c1 (stereo not drawn) [Example 2-260] | – | – | – | < 1000 | < 100 | ≥ 1 |
| CCC1C(c2ccccc2)C1(NS(=O)(=O)c1ccc(-c2cc(C(F)(F)F)on2)s1)C(=O)O (stereo not drawn) [Example 2-299] | < 100 | < 100 | < 0.1 | – | – | – |
| O=C(O)[C@]1(NS(=O)(=O)/C=C/c2ccccc2)C[C@@H]1c1ccccc1 [Example 2-140] | – | – | – | ≥ 10000 | ≥ 1000 | ≥ 10 |
| Nc1cccc(C2CC2(NS(=O)(=O)c2ccc(-c3cc(C(F)(F)F)on3)s2)C(=O)O)c1 (stereo not drawn) [Example 2-201] | – | – | – | < 1000 | < 100 | ≥ 10 |
| O=C(O)C1(NS(=O)(=O)c2cn3cc(-c4ccc(Cl)cc4)nc3s2)CC1c1ccccc1 (stereo not drawn) [Example 2-490] | ≥ 1000 | < 100 | ≥ 10 | – | – | – |
| O=C(O)C1(NS(=O)(=O)c2ccc(-c3cc(C(F)(F)F)on3)s2)CC1c1ccccc1CCCO (stereo not drawn) [Example 2-252] | – | – | – | < 100 | < 1000 | ≥ 1 |
| Cc1ccc(-c2ccccc2C2CC2(NS(=O)(=O)c2ccc(-c3ccc(Cl)cc3)s2)C(=O)O)cc1 (stereo not drawn) [Example 2-40] | – | – | – | < 1000 | < 1000 | ≥ 10 |
| O=C(O)C1(NS(=O)(=O)c2ccc(-c3ccc(Cl)cc3)s2)C2Cc3ccccc3C21 (stereo not drawn) [Example 2-431] | < 1000 | < 1000 | ≥ 1 | – | – | – |
| C#Cc1ccc(S(=O)(=O)N[C@@]2(C(=O)O)C(C)[C@@H]2c2ccccc2)s1 (stereo partly drawn) [Example 2-424] | ≥ 10000 | < 1000 | < 1 | – | – | – |
| O=C(O)C1(NS(=O)(=O)c2ccc(-c3ccc(Cl)cc3)cc2)CC1c1cccc(OCc2cccnc2)c1 (stereo not drawn) [Example 1-76] | – | – | – | < 1000 | < 100 | ≥ 10 |
| O=C(O)C1(NS(=O)(=O)N2CCn3c(nnc3-c3ccccc3)C2)CC1c1ccccc1 (stereo not drawn) [Example 2-126] | – | – | – | ≥ 10000 | ≥ 10000 | ≥ 10 |
| O=C(O)C1(NS(=O)(=O)c2ccc(OCc3ccc(Cl)cc3Cl)cc2)C2CCc3ccccc3C21 (stereo not drawn) [Example 2-355] | ≥ 1000 | < 1000 | ≥ 1 | – | – | – |
| CC1[C@H](c2ccccc2)[C@]1(NS(=O)(=O)c1ccc(-c2nc3ccccc3s2)s1)C(=O)O (stereo partly drawn) [Example 2-591] | ≥ 1000 | < 100 | ≥ 1 | – | – | – |
